These are literature values, as cited in article PMC9500858 (International Journal of Molecular Sciences, 2022).

The subject of one data set is mu opioid receptor. As to conditions: replacement of Tle with Ile; cited from earlier work. The source says: (§1) Tle and Ile are structural isomers belonging to the same class of leucines with the same atomic composition (C6H13NO2) but they have different chemical structures, including different bond coordination and stereochemistry (Figure 1). Thus, their presence in the peptide structure led to diverse results. In fact, incorporation of Ile into the 9th position of the peptide chain caused a decrease in the analgesic activity in vivo when compared with PK20, having a tert-leucine (Tle9) in the corresponding position. Nonetheless, [Ile^9]PK20 produced the maximal pain-relieving effect, although wi ...

Data set [1] relates to NTS1 neurotensin receptor. As to conditions: replacement of Tle with Ile; cited from earlier work.
Excerpt: as §1

In the case of “HELM PEPTIDE1{[Cc1cc(O)cc(C)c1C[C@H](N)C(=O)[*:2]].[dK].F.F.K.K.P.F.I.L}$$$$V2.0 (N-terminus assumed; SMILES CC[C@H](C)[C@H](NC(=O)[C@H](Cc1ccccc1)NC(=O)[C@@H]1CCCN1C(=O)[C@H](CCCCN)NC(=O)[C@H](CCCCN)NC(=O)[C@H](Cc1ccccc1)NC(=O)[C@H](Cc1ccccc1)NC(=O)[C@@H](CCCCN)NC(=O)[C@@H](N)Cc1c(C)cc(O)cc1C)C(=O)N[C@@H](CC(C)C)C(=O)O) [[Ile^9]PK20, analogue of PK20 with Ile instead of Tle at position 9]”, the “binding at mu opioid receptor relative to PK20” value in the data set on mu opioid receptor was “reduced binding”. For the same substance, the “binding at NTS1 neurotensin receptor relative to PK20” value in data set [1] is reported as “reduced binding”.
